Structures can show the parent of a compound that is named as a salt.
Each compound was assayed on VEGF (assay: Hypoxia-inducible endogenous VEGF expression ELISA in HeLa cells). Conditions: Homo sapiens, HeLa, compounds 1-155, hypoxic conditions (1% O2), VEGF protein by ELISA, read-out: ELISA Activity.
Type: cell-based
Outline: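 HeLa cells held 24–48 h in hypoxia (1% O2) with a concentration series of compound; VEGF secreted into media quantified by ELISA against a standard curve. Parallel Cell Titer Glo viability under identical conditions gives CC50; EC50 from percent-inhibition curves.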

First: Clc1ccc(NC2CCCc3c2[nH]c2ccc(Br)cc32)cc1Cl (stereo not drawn) [Compound 36, (6-Bromo-2,3,4,9-tetrahydro-1H-carbazol-1-yl)-(3,4-dichloro-phenyl)-amine]
Second: Clc1ccc(NC2CCCc3c2[nH]c2ccc(Br)cc32)cc1 (stereo not drawn) [Compound 3, (6-Bromo-2,3,4,9-tetrahydro-1H-carbazol-1-yl)-(4-chloro-phenyl)-amine]
The EC50 of the first is higher: 40 to 200 nM for the first, less than 10 nM for the second.

First: O=S(=O)(NC1CCCc2c1[nH]c1ccc(Br)cc21)c1ccccc1 (stereo not drawn) [Compound 46, N-(6-Bromo-2,3,4,9-tetrahydro-1H-carbazol-1-yl)-benzenesulfonamide]
Second: Brc1ccc2[nH]c3c(c2c1)CCCCC3Nc1ccccc1 (stereo not drawn) [Compound 33, (2-Bromo-5,6,7,8,9,10-hexahydro-cyclohepta[b]indol-6-yl)-phenyl-amine]
The EC50 of the first is higher: 40 to 200 nM for the first, 10 to 40 nM for the second.

First: COc1ccc2[nH]c3c(c2c1)CCCC3n1cccc1 (stereo not drawn) [Compound 56, 6-Methoxy-1-pyrrol-1-yl-2,3,4,9-tetrahydro-1H-carbazole]
Second: c1ccn(C2CCCc3c2[nH]c2ccc(N4CCCC4)cc32)c1 (stereo not drawn) [Compound 106, 6-Pyrrolidin-1-yl-1-pyrrol-1-yl-2,3,4,9-tetrahydro-1H-carbazole]
The EC50 of the first is lower: 40 to 200 nM for the first, greater than 1000 nM for the second. The first is the more potent here.

Brc1ccc2[nH]c3c(c2c1)CCCC3Nc1ccc(N2CCOCC2)cc1 (stereo not drawn) [Compound 40, (6-Bromo-2,3,4,9-tetrahydro-1H-carbazol-1-yl)-(4-morpholin-4-yl-phenyl)-amine] and N#Cc1ccc(NC2CCCc3c2[nH]c2ccc(Br)cc32)cc1 (stereo not drawn) [Compound 44, 4-(6-Bromo-2,3,4,9-tetrahydro-1H-carbazol-1-ylamino)-benzonitrile] fall in the same range of EC50: 40 to 200 nM for the first, 40 to 200 nM for the second.

First: O=C1CCCc2c1[nH]c1ccc(Cl)cc21 [Compound 76, 6-Chloro-2,3,4,9-tetrahydro-carbazol-1-one]
Second: O=C1CCCc2c1[nH]c1ccc(OC(F)(F)F)cc21 [Compound 73, 6-Trifluoromethoxy-2,3,4,9-tetrahydro-carbazol-1-one]
The EC50 of the first is higher: greater than 1000 nM for the first, 200 to 1000 nM for the second. The second is the more potent here.

First: O=C(NC1CCCc2c1[nH]c1ccc(Br)cc21)c1ccno1 (stereo not drawn) [Compound 150, isoxazole-5-carboxylic acid (6-bromo-2,3,4,9-tetrahydro-1H-carbazol-1-yl)-amide]
Second: O=C(NC1CCCc2c1[nH]c1ccc(Br)cc21)c1cccc(Cl)c1 (stereo not drawn) [Compound 22, N-(6-Bromo-2,3,4,9-tetrahydro-1H-carbazol-1-yl)-3-chloro-benzamide]
The EC50 of the first is higher: 10 to 40 nM for the first, less than 10 nM for the second. The second is the more potent here.

First: O=C1c2ccccc2CN1C1CCCc2c1[nH]c1ccc(Br)cc21 (stereo not drawn) [Compound 25, 2-(6-Bromo-2,3,4,9-tetrahydro-1H-carbazol-1-yl)-2,3-dihydro-isoindol-1-one]
Second: O=C1c2ccccc2C(=O)N1C1CCCc2c1[nH]c1ccc(Br)cc21 (stereo not drawn) [Compound 41, 2-(6-Bromo-2,3,4,9-tetrahydro-1H-carbazol-1-yl)-isoindole-1,3-dione]
The EC50 of the first is lower: 10 to 40 nM for the first, 40 to 200 nM for the second. The first is the more potent here.

Brc1cccc2c3c([nH]c12)C(n1cccc1)CCC3 (stereo not drawn) [Compound 118, 8-Bromo-1-pyrrol-1-yl-2,3,4,9-tetrahydro-1H-carbazole] and O=C(O)c1ccn(C2CCCc3c2[nH]c2ccc(Br)cc32)c1 (stereo not drawn) [Compound 113, 1-(6-Bromo-2,3,4,9-tetrahydro-1H-carbazol-1-yl)-1H-pyrrole-3-carboxylic acid] cannot be ordered by EC50: greater than 1000 nM for the first, greater than 1000 nM for the second.

First: CN(C(=O)c1cccc(Cl)c1)C1CCCc2c1[nH]c1ccc(Br)cc21 (stereo not drawn) [Compound 66, N-(6-Bromo-2,3,4,9-tetrahydro-1H-carbazol-1-yl)-3-chloro-N-methyl-benzamide]
Second: COc1cccc(C2CCCc3c2[nH]c2ccc(Br)cc32)c1 (stereo not drawn) [Compound 16, 6-Bromo-1-(3-methoxy-phenyl)-2,3,4,9-tetrahydro-1H-carbazole]
The EC50 of the first is higher: 200 to 1000 nM for the first, less than 10 nM for the second.

Fc1cccc(NC2CCCc3c2[nH]c2ccc(Br)cc32)c1 (stereo not drawn) [Compound 12, (6-Bromo-2,3,4,9-tetrahydro-1H-carbazol-1-yl)-(3-fluoro-phenyl)-amine] and Brc1ccc2[nH]c3c(c2c1)CCCC3Nc1ccc2c(c1)OCO2 (stereo not drawn) [Compound 18, Benzo[1,3]dioxol-5-yl-(6-bromo-2,3,4,9-tetrahydro-1H-carbazol-1-yl)-amine] cannot be ordered by EC50: less than 10 nM for the first, less than 10 nM for the second.

CN(C)c1ccc(NC2CCCc3c2[nH]c2ccc(Br)cc32)cc1 (stereo not drawn) [Compound 61, N-(6-Bromo-2,3,4,9-tetrahydro-1H-carbazol-1-yl)-N′,N′-dimethyl-benzene-1,4-diamine] and Cc1ccc(C)n1C1CCCc2c1[nH]c1ccc(Br)cc21 (stereo not drawn) [Compound 70, 6-Bromo-1-(2,5-dimethylpyrrol-1-yl)-2,3,4,9-tetrahydro-1H-carbazole] fall in the same range of EC50: 200 to 1000 nM for the first, 200 to 1000 nM for the second.

Compared with O=C(NC1CCCc2c1[nH]c1ccc(Br)cc21)c1cccc(Oc2ccccc2)c1 (stereo not drawn) [Compound 30, N-(6-Bromo-2,3,4,9-tetrahydro-1H-carbazol-1-yl)-3-phenoxy-benzamide], O=C(NC1CCCc2c1[nH]c1ccc(Br)cc21)c1cc2ccccc2[nH]1 (stereo not drawn) [Compound 127, 1H-lndole-2-carboxylic acid (6-bromo-2,3,4,9-tetrahydro-1H-carbazol-1-yl)-amide] is higher in EC50: 10 to 40 nM for the first, 40 to 200 nM for the second.

CC(C)(C)CCNC1CCCc2c1[nH]c1ccc(Br)cc21 (stereo not drawn) [Compound 79, (6-Bromo-2,3,4,9-tetrahydro-1H-carbazol-1-yl)-(3,3-dimethyl-butyl)-amine] and Brc1ccc2[nH]c3c(c2c1)CCCC3 [Compound 83, 6-Bromo-2,3,4,9-tetrahydro-1H-carbazole] cannot be ordered by EC50: greater than 1000 nM for the first, greater than 1000 nM for the second.

O/N=C1\CCCc2c1[nH]c1ccc(Br)cc21 [Compound 87, 6-Bromo-2,3,4,9-tetrahydro-carbazol-1-one oxime] and Cn1c2c(c3cc(Br)ccc31)CCCC2=O [Compound 88, 6-Bromo-9-methyl-2,3,4,9-tetrahydro-carbazol-1-one] cannot be ordered by EC50: greater than 1000 nM for the first, greater than 1000 nM for the second.

First: CC(C)(C)OC(=O)n1c2c(c3cc(Br)ccc31)CCCC2=O [Compound 80, 6-Bromo-1-oxo-1,2,3,4-tetrahydro-carbazole-9-carboxylic acid tert-butyl ester]
Second: Brc1ccc2[nH]c3c(c2c1)CCCC3n1cc2ccsc2c1 (stereo not drawn) [Compound 1, 6-Bromo-1-thieno[2,3-c]pyrrol-5-yl-2,3,4,9-tetrahydro-1H-carbazole]
The EC50 of the first is higher: greater than 1000 nM for the first, less than 10 nM for the second.

With Brc1ccc2[nH]c3c(c2c1)CCCC3NC1CCC(c2ccccc2)CC1 (stereo not drawn) [Compound 27, (6-Bromo-2,3,4,9-tetrahydro-1H-carbazol-1-yl)-(4-phenyl-cyclohexyl)-amine] the EC50 was 10 to 40 nM.

Same assay, conditions: Homo sapiens, HeLa, compounds 191-239, hypoxic conditions, VEGF protein by ELISA, read-out: ELISA Activity EC50

First: CN1CCN(CCCOc2ccc(C3CCCc4c3[nH]c3ccc(Br)cc43)cc2)CC1 (stereo not drawn) [Compound 208]
Second: CN1CCN(CC(O)COc2ccc(C3CCCc4c3[nH]c3ccc(Br)cc43)cc2)CC1 (stereo not drawn) [Compound 201]
The EC50 of the first is higher: 40 to 200 nM for the first, 10 to 40 nM for the second.

OC(COc1ccc(C2CCCc3c2[nH]c2ccc(Br)cc32)cc1)Cn1ccnc1 (stereo not drawn) [Compound 195] and Brc1ccc2[nH]c3c(c2c1)CCCC3c1ccc(OCCCn2ccnc2)cc1 (stereo not drawn) [Compound 211] cannot be ordered by EC50: less than 10 nM for the first, less than 10 nM for the second.

First: OC(COc1ccc(C2CCCCc3c2[nH]c2ccc(Br)cc32)cc1)Cn1cncn1 (stereo not drawn) [Compound 226]
Second: COCCN(C)CC(O)COc1ccc(C2CCCc3c2[nH]c2ccc(Br)cc32)cc1 (stereo not drawn) [Compound 200]
The EC50 of the first is higher: 40 to 200 nM for the first, less than 10 nM for the second.

Oc1ccc(C2CCCc3c2[nH]c2ccc(Br)cc32)cc1 (stereo not drawn) [Compound 193] and COCCN(CCOC)CC(O)COc1ccc(C2CCCc3c2[nH]c2ccc(Cl)cc32)cc1 (stereo not drawn) [Compound 216] fall in the same range of EC50: 10 to 40 nM for the first, 10 to 40 nM for the second.

Same assay, conditions: Homo sapiens, HeLa, purchased compounds 156-188, hypoxic conditions, VEGF protein by ELISA, read-out: ELISA Activity

First: Cc1ccc2c(c1)c1c3n2CCN(N=O)C3CCC1 (stereo not drawn) [Compound 162, 8-Methyl-3-nitroso-2,3,3a,4,5,6-hexahydro-1H-pyrazino[3,2,1-jk]carbazole]
Second: Cc1ccc2c(c1)c1c3n2CCNC3CCC1 (stereo not drawn) [Compound 169, 8-Methyl-2,3,3a,4,5,6-hexahydro-1H-pyrazino[3,2,1-jk]carbazole hydrochloride]
The EC50 of the first is lower: 200 to 1000 nM for the first, greater than 1000 nM for the second. The first is the more potent here.

S=C(Nc1ccccc1)N1CCn2c3c(c4cc(C5CCCCC5)ccc42)CCCC31 (stereo not drawn) [Compound 164, 8-Cyclohexyl-1,2,3a,4,5,6-hexahydro-pyrazino[3,2,1-jk]carbazole-3-carbothioic acid phenylamide] and Cc1ccc2c(c1)c1c3n2CCN(C(C)c2ccccc2)C3CCC1 (stereo not drawn) [Compound 179, 8-Methyl-3-(1-phenyl-ethyl)-2,3,3a,4,5,6-hexahydro-1H-pyrazino[3,2,1-jk]carbazole] cannot be ordered by EC50: greater than 1000 nM for the first, greater than 1000 nM for the second.

Cc1ccc2[nH]c3c(c2c1)CCCC3NC1CCCCC1 (stereo not drawn) [Compound 161, Cyclohexyl-(6-methyl-2,3,4,9-tetrahydro-1H-carbazol-1-yl)-amine] showed an EC50 of 200 to 1000 nM.

Same assay, conditions: Homo sapiens, HeLa, purchased compounds 156-188, hypoxic conditions, VEGF protein by ELISA, read-out: ELISA EC50

Point of comparison: S=C(Nc1ccccc1)N1CCn2c3c(c4cc(C5CCCCC5)ccc42)CCCC31 (stereo not drawn) [Compound 164, 8-Cyclohexyl-1,2,3a,4,5,6-hexahydro-pyrazino[3,2,1-jk]carbazole-3-carbothioic acid phenylamide], EC50 2170 nM. Against it:
- Cc1ccc2c(c1)c1c3n2CCN(N=O)C3CCC1 (stereo not drawn) [Compound 162, 8-Methyl-3-nitroso-2,3,3a,4,5,6-hexahydro-1H-pyrazino[3,2,1-jk]carbazole] — 2.4-fold lower, 890 nM
- Cc1ccc2c(c1)c1c3n2CCNC3CCC1 (stereo not drawn) [Compound 169, 8-Methyl-2,3,3a,4,5,6-hexahydro-1H-pyrazino[3,2,1-jk]carbazole hydrochloride] — higher, > 10000 nM
- Cc1ccc2[nH]c3c(c2c1)CCCC3NC1CCCCC1 (stereo not drawn) [Compound 161, Cyclohexyl-(6-methyl-2,3,4,9-tetrahydro-1H-carbazol-1-yl)-amine] — 3.2-fold lower, 670 nM
- Cc1ccc2c(c1)c1c3n2CCN(C(C)c2ccccc2)C3CCC1 (stereo not drawn) [Compound 179, 8-Methyl-3-(1-phenyl-ethyl)-2,3,3a,4,5,6-hexahydro-1H-pyrazino[3,2,1-jk]carbazole] — higher, > 10000 nM

Same assay, conditions: purchased compounds 156-188, hypoxic conditions, VEGF protein by ELISA, read-out: ELISA Activity

“3-[(2,3,4,9-Tetrahydro- 1H-carbazol-1-ylamino)- methylene]-1,3-dihydro- indol-2-one [Compound 158]” showed an EC50 of 200 to 1000 nM.

Same assay, conditions: purchased compounds 156-188, hypoxic conditions, VEGF protein by ELISA, read-out: ELISA EC50

Compound “3-[(2,3,4,9-Tetrahydro- 1H-carbazol-1-ylamino)- methylene]-1,3-dihydro- indol-2-one [Compound 158]” has an EC50 of 267 nM.

From patent US9271960B2, “Tetrahydrocarbazoles as active agents for inhibiting VEGF production by translational control” (PTC Therapeutics, Inc., priority 2004, dated 2016)
